{"source": "patent US20050153937A1", "about": "“Desensitization of compliment activation using monocyte/macrophage inhibitory compounds” (priority 2003, published 2005)", "test_system": "complement activation-related acute hypersensitivity (CARPA)", "conditions": "pig, in vivo", "text": "Adolescent (2040 kg) Yorkshire pigs of both genders are sedated with i.m. ketamine (Ketalar) and then anesthetized with halothane or isoflurane via nose cone. The trachea is intubated to allow mechanical ventilation with an anesthesia machine, using 1-2.5% halothane or isoflurane. A pulmonary artery catheter equipped with thermodilution-based continuous cardiac output detector is advanced via the right internal jugular vein through the right atrium into the pulmonary artery to measure pulmonary arterial pressure (PAP) and cardiac output (CO). Another catheter is inserted into the right femoral artery and advanced into the proximal aorta for blood sampling and to measure systemic arterial pressure (SAP). Blood pressure values and 2-3 leads of the electrocardiogram (ECG) are obtained continually.\nThe CARPA-activating compounds used in the following experiments are i) Doxil containing 2 mg/ml doxorubicin HCl and 16 mg/ml lipid (phospholipid concentration: 13.3 mM, 150 μg doxorubicin/μmol phospholipid), ii) multilamellar vesicles (MLV) consisting of dimyristoyl phosphatidylcholine (DMPC), dimyristoyl phosphatidylglycerol (DMPG), and cholesterol at a 45:5:50 ratio, and iii) zymosan. […]"}
{"substance": "Zymosan", "values": [{"measurement": "reactions to second series of CARPA-activator injections compared with first administration", "value": "substantially identical"}, {"measurement": "time until all physiologic and blood measures return to baseline after injection", "setting": "iv", "value": "≤ 30", "unit": "min"}]}
